The text below walks through data of ChEMBL document CHEMBL1201862, “PubChem BioAssay data set” (2004).

Assay in all cases: NCI tumour cell line growth inhibition, 48 h
Assay [1] relates to SF-295.
The subject of assay [2] is HCT-116.
Assay [3] has as its system UO-31.
The test system of assay [4] is U-251.
The test system of assay [5] is NCI-H522.
Assay [6] concerns ACHN.
Assay [7] deals with RPMI-8226.
Assay [8] concerns TK-10.
Assay [9] has as its system SNB-75.
The test system of assay [10] is SK-MEL-28.
For assay [11], the system named is Malme-3M.
The subject of assay [12] is UACC-257.
The test system of assay [13] is K562.
The test system of assay [14] is LXFL 529.
Assay [15] concerns OVCAR-4.
Assay [16] relates to LOX IMVI.
The test system of assay [17] is RXF 393.

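Protocol summary: plate cells (96-well), add compound at 5 concentrations, incubate 48 h, interpolate endpoints linearly. GI50 marks 50% less growth.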 Active and inactive are the calls of the source. Rule as the data show it: active = GI50 up to about 1.1 µM and inactive = higher. A value given as a limit tells only on which side of the number the result lay.

Consider `O=[N+]([O-])/C=C/c1ccc(Cl)cc1Cl`, for which the GI50 is 17 µM (inactive) in [1]; 3.44 µM (inactive) in assay [2]; 16.2 µM (inactive) in assay [3]; 5.66 µM (inactive) in [4]; 14.6 µM (inactive) in assay [5]; 16.8 µM (inactive) in assay [6]. The GI50 in assay [7] is 2.44 µM (inactive); in assay [8], > 10 µM (inactive); in assay [9], 20.4 µM (inactive); in assay [10] it was 14.9 µM (inactive); in assay [11] it was 17.8 µM (inactive); in assay [12] it was 13.4 µM (inactive). Further, the GI50 in assay [13] is 3.33 µM (inactive); in [14], 13.8 µM (inactive); in assay [15], 19.8 µM (inactive).

`CN1C(=O)C(Cl)(C(Cl)(Cl)S(=O)(=O)O)C(=O)c2ccccc21.c1ccncc1` (stereo not drawn): the GI50 in assay [16] was > 100 µM (inactive); in assay [1] it was > 100 µM (inactive); in assay [2], > 100 µM (inactive); in assay [3], 91.2 µM (inactive); in assay [4], > 100 µM (inactive); in [5], 44.9 µM (inactive). In addition, the GI50 in [6] was 76.4 µM (inactive); in assay [7] it was > 100 µM (inactive); in assay [8], > 100 µM (inactive); in assay [17] it was 53.7 µM (inactive); in assay [9], 54.2 µM (inactive); in assay [10] it was > 100 µM (inactive). Moreover, the GI50 is 33.2 µM (inactive) in assay [11]; > 100 µM (inactive) in assay [12]; > 100 µM (inactive) in assay [13]; > 100 µM (inactive) in assay [14]; > 100 µM (inactive) in [15].

Turning to `COc1ccc(-c2cc(=O)c3c(O)cc(O)cc3o2)c(OC)c1OC`, the GI50 is 70.1 µM (inactive) in assay [16]; 87.5 µM (inactive) in assay [1]; 52.1 µM (inactive) in assay [5]; > 10 µM (inactive) in assay [6]; 17.6 µM (inactive) in [7]; > 100 µM (inactive) in assay [8]. The GI50 in [17] is 48.8 µM (inactive); in assay [9], 38.3 µM (inactive); in [10], 94.2 µM (inactive); in assay [11] it was > 100 µM (inactive); in assay [12] it was > 100 µM (inactive); in assay [13], 42.7 µM (inactive). The GI50 in [14] was 49.3 µM (inactive); in assay [15], 62.8 µM (inactive).

On to `CCCc1nn(C)c(CCC(=O)N(Cc2ccccc2)Cc2ccccc2)c1CC`, for which the GI50 in assay [16], in assay [1], in assay [2], in [3], in [4] and in [5] was > 100 µM (inactive) in each case. Besides, the GI50 was > 100 µM (inactive) in [6]; > 100 µM (inactive) in assay [7]; > 100 µM (inactive) in [8]; > 100 µM (inactive) in assay [17]; 47 µM (inactive) in assay [9]; > 100 µM (inactive) in [10]. Further, the GI50 in assay [11], in assay [12], in assay [14] and in assay [15] was > 100 µM (inactive) each time.

In the case of `O=C(N/C(=C\c1cccc([N+](=O)[O-])c1)c1nc2cc([N+](=O)[O-])ccc2[nH]1)c1ccccc1`, the GI50 was 40.4 µM (inactive) in assay [1]; 10.9 µM (inactive) in assay [3]; 40.7 µM (inactive) in assay [4]; 18.3 µM (inactive) in [5]; 28.4 µM (inactive) in assay [6]; 93.3 µM (inactive) in assay [8]. For the same compound, the GI50 in assay [17] was 12.8 µM (inactive); in assay [10], 36.9 µM (inactive); in assay [11], 48.2 µM (inactive); in [13], 25.1 µM (inactive); in assay [14] it was 11 µM (inactive); in assay [15], 19.5 µM (inactive).

Regarding `O=c1cc(-c2ccccc2)oc2cc(O)cc(O)c12` [CHRYSIN], the GI50 is 14.7 µM (inactive) in [16]; 14.9 µM (inactive) in [1]; 15.2 µM (inactive) in [2]; 20.4 µM (inactive) in assay [3]; 21.7 µM (inactive) in [4]; 15.9 µM (inactive) in assay [5]. For the same compound, the GI50 in [6] is 15.2 µM (inactive); in assay [7], 16 µM (inactive); in assay [8], 34.5 µM (inactive); in assay [9] it was 10.3 µM (inactive); in assay [10], 16.8 µM (inactive); in assay [11] it was 24.3 µM (inactive). Further, the GI50 in assay [12] was 21.1 µM (inactive); in [13], 22.8 µM (inactive); in [14], 21.1 µM (inactive); in assay [15] it was 29.8 µM (inactive).

On to `COc1ccc2nc3ccccc3c(NCCN(CCCl)CCCl)c2c1`, for which the GI50 in assay [1] is 0.614 µM (active); in [2], 0.272 µM (active); in assay [3], 1.57 µM (inactive); in assay [4], 0.326 µM (active); in assay [5], 0.348 µM (active); in assay [6], 0.336 µM (active). Further, the GI50 in assay [8] is 1.76 µM (inactive); in assay [17] it was 1.66 µM (inactive); in assay [9], 1.25 µM (inactive); in assay [10] it was 2.36 µM (inactive); in assay [11], 1.51 µM (inactive); in assay [12], 1.3 µM (inactive). The values for the GI50 in assay [13], in assay [14] and in assay [15] were 0.407 µM (active), 0.466 µM (active) and 1.08 µM (active), respectively.

On to `CCC12CCCN(Cc3ccccc3)C1c1c(n(C)c3ccccc13)C(C(=O)OC)C2` (stereo not drawn), for which the GI50 in [16] was 158 µM (inactive); in assay [1], 75.7 µM (inactive); in assay [2] it was 51.6 µM (inactive); in assay [4] it was 117 µM (inactive); in assay [5], 53.2 µM (inactive); in assay [6], 182 µM (inactive). Further, the GI50 in [7] was 82.4 µM (inactive); in assay [8] it was > 239 µM (inactive); in [17], 128 µM (inactive); in assay [10] it was > 239 µM (inactive); in [11], > 239 µM (inactive); in assay [12], 66.4 µM (inactive). Besides, the GI50 was 93.5 µM (inactive) in assay [13] and 96.6 µM (inactive) in assay [14].

Regarding `CCN1CCC(O)(c2ccc(Cl)cc2)C(C(=O)c2ccc(Cl)cc2)C1` (stereo not drawn), the GI50 in assay [16] is > 100 µM (inactive); in [1] it was > 100 µM (inactive); in assay [2], > 100 µM (inactive); in assay [3] it was 35.2 µM (inactive); in [4], > 100 µM (inactive); in assay [5], 20.4 µM (inactive). Besides, the GI50 in assay [6] was > 100 µM (inactive); in [7], 24.4 µM (inactive); in [8], > 100 µM (inactive); in assay [17] it was > 100 µM (inactive); in [9] it was 42 µM (inactive); in assay [10] it was > 100 µM (inactive). Also, the GI50 in [12], in assay [13], in assay [14] and in [15] was > 100 µM (inactive) in each case.

Regarding `CNS(=O)(=O)NNS(=O)(=O)c1ccc2ccccc2c1`, the GI50 in assay [16], in assay [1], in assay [2], in assay [3], in assay [4] and in [5] was > 100 µM (inactive) in each case. The GI50 in assay [6], in assay [7], in [8], in assay [9], in assay [10] and in [11] was > 100 µM (inactive) each time. Moreover, the GI50 in assay [12], in assay [13], in assay [14] and in [15] was > 100 µM (inactive) in each case.

Take `CCN(CC)c1ccc2c(c1)N=C1N=CC=CN1C2(c1ccc(N(C)C)cc1)c1ccc(N(C)C)cc1`: the GI50 in assay [16] is 5.25 µM (inactive); in [1], 3.64 µM (inactive); in assay [2] it was 3.85 µM (inactive); in assay [3] it was 7.48 µM (inactive); in assay [4], 4.32 µM (inactive); in assay [5], 1.74 µM (inactive). The GI50 in assay [6] was 4.5 µM (inactive); in assay [7] it was 2.9 µM (inactive); in [8] it was 13 µM (inactive); in [17], 8.57 µM (inactive); in assay [9], 11.6 µM (inactive); in [10] it was 10.8 µM (inactive). Also, the GI50 in assay [11] is 12.7 µM (inactive); in assay [12], 5.24 µM (inactive); in assay [13], 2.3 µM (inactive); in assay [14] it was 3.84 µM (inactive).

Regarding `O=C1[C@@H]2C3SC(c4ccccc43)[C@@H]2C(=O)N1c1ccccc1`, the GI50 in assay [16] is > 100 µM (inactive); in assay [1], > 88.9 µM (inactive); in assay [2] it was > 100 µM (inactive); in assay [3] it was > 100 µM (inactive); in assay [4], > 66.4 µM (inactive); in [5], > 100 µM (inactive). Further, the GI50 in assay [6] was > 100 µM (inactive); in assay [7] it was > 100 µM (inactive); in [8], 97.1 µM (inactive); in [17], > 100 µM (inactive); in [9], 28.6 µM (inactive); in assay [10] it was > 100 µM (inactive). The GI50 in assay [11], in assay [12], in assay [13] and in assay [14] was > 100 µM (inactive) in each case.

In the case of `O=C1NC(c2ccccc2)(c2ccccc2)C(=O)N1CCCCCCN1C(=O)NC(c2ccccc2)(c2ccccc2)C1=O`, the GI50 was 62.5 µM (inactive) in assay [16]; 13.2 µM (inactive) in assay [1]; > 100 µM (inactive) in assay [3]; 27.7 µM (inactive) in [4]; 11.9 µM (inactive) in [5]; 33.3 µM (inactive) in assay [6]. Also, the GI50 was > 100 µM (inactive) in assay [7]; 25 µM (inactive) in assay [8]; 4.79 µM (inactive) in [9]; 11 µM (inactive) in [10]; 22.5 µM (inactive) in assay [11]; 26.2 µM (inactive) in assay [12]. The GI50 in assay [13] is 52.8 µM (inactive); in assay [14] it was 25.9 µM (inactive); in [15], 4.52 µM (inactive).
